Measured values reported in patent publication EP2910557A1, “Enantiopure tetrasubstituted pyrrolidines as scaffolds for proteasome inhibitors and medicinal applications thereof” (Ikerchem, S.L., priority 2014, dated 2015).

Legend:
Test in all cases: Cancer cell growth inhibition, 72 h treatment
Format in all cases: cell-based
[1] = test system: A549; details: Homo sapiens
Protocol: (§1) Cell culture-based assays were used to evaluate the ability of compounds of the invention to inhibit cancer cell growth.
(§2) Cells were obtained from the American Type Culture Collection (ATCC) and the European Collection of Cell Cultures. Cells were thawed in their appropriate media plus supplements (see table below). Cells were passaged at confluence by washing once in HBSS cation-free followed by a 3 minutes incubation with trypsin ([0.5 µg/ml]/EDTA [0.2 µg/ml]) (Gibco-BRL, 15400054) solution in HBSS at 37°C (except non-adherent cell lines - hematologic), and transferred to their appropriate media plus supplements. Prior to seeding at defined cell concentration, cells were recovered in medium, centrifuged, taken up in medium and counted.
(§3) All treatments were performed in triplicate. Experiments were carried out in 96-well cell culture plates (Cultek) and the cell lines seeded at the density mentioned in the table above and cultured at 37°C with 5% CO2. After 24h, media were supplemented by 100 µl/well of diluted test compound at variable final concentrations and incubated for 72 hours. Then, AlamarBlue® Reagent (Biosource DAL1100) was added to each well and incubated at 37°C for 4 hours. Relative fluorescent intensity that correlates with the number of living cells was read in a Cytofluor plate reader (Millipore) at 535/590 nm (Excitation/emission). After reading the AlamarBlue® signal, the hexosaminidase activitity was measured according to the following protocol: medium was removed and cells were washed once with PBS. 60 µl of substrate solution (p-nitrophenol-N-acetyl-beta-D-glucosaminide 7.5 mM [Sigma N-9376], sodium citrate 0.1 M, pH 5.0, 0.25% Triton X-1 00) was added to each well and incubated at 37°C for 1-2 hours; after this incubation time, a bright yellow colour appears; then, plates could be developed by adding 90 µl of developer solution (Glycine 50 mM, pH 10.4; EDTA 5 mM), and absorbance was recorded at 405 nm.
(§4) Note: In all cases assays were performed in Alamar Blue with the exception of those indicated (* = Hexosaminidase assay)

[2] = test system: HCT-116; details: Homo sapiens, Colon cancer HCT-116, Alamar Blue
Protocol: as §1, §2, §3, §4

[3] = test system: SK-Mel-28; details: Homo sapiens, Melanoma SK-Mel-28, Alamar Blue
Protocol: as §1, §2, §3, §4

[4] = test system: COLO 205; details: Homo sapiens
Protocol: as §1, §2, §3, §4

[5] = test system: MCF-7; details: Homo sapiens, MCF7, Breast cancer MCF-7, Alamar Blue
Protocol: as §1, §2, §3, §4

[6] = test system: MDA-MB-468; details: Homo sapiens, Breast cancer MDA-MB-468, Alamar Blue
Protocol: as §1, §2, §3, §4

[7] = test system: T47D; details: Homo sapiens, Breast cancer T47D
Protocol: as §1, §2, §3, §4

[8] = test system: PC-3; details: Homo sapiens, Prostate cancer PC-3, Alamar Blue
Protocol: as §1, §2, §3, §4

[9] = test system: RPMI-8226; details: Homo sapiens, Multiple mieloma RPMI-8226, Alamar Blue
Protocol: as §1, §2, §3, §4

[10] = test system: SK-HEP-1; details: Homo sapiens, SK-HEP1, Liver cancer SK-HEP-1, Alamar Blue
Protocol: as §1, §2, §3, §4

[11] = test system: Daoy; details: Homo sapiens, Brain Daoy, Alamar Blue
Protocol: as §1, §2, §3, §4

[12] = test system: NCI-H358; details: Homo sapiens, Lung cancer NCI-H358, Alamar Blue
Protocol: as §1, §2, §3, §4

[13] = test system: LNCaP; details: Homo sapiens, Prostate cancer LNCaP, Alamar Blue
Protocol: as §1, §2, §3, §4

[14] = test system: SK-OV-3; details: Homo sapiens, Ovarian cancer SK-OV-3, Alamar Blue
Protocol: as §1, §2, §3, §4

[15] = test system: U-87 MG; details: Homo sapiens, Brain U-87 MG, Hexosaminidase assay (*)
Protocol: as §1, §2, §3, §4

[16] = test system: MDA-MB-231; details: Homo sapiens, Breast cancer MDA-MB-231, Alamar Blue
Protocol: as §1, §2, §3, §4

[17] = test system: LoVo; details: Homo sapiens, Colon cancer LoVo, Alamar Blue
Protocol: as §1, §2, §3, §4

[18] = test system: SW480; details: Homo sapiens
Protocol: as §1, §2, §3, §4

[19] = test system: BxPC-3; details: Homo sapiens
Protocol: as §1, §2, §3, §4

[20] = test system: SK-BR-3; details: Homo sapiens, Breast cancer SK-BR-3, Alamar Blue
Protocol: as §1, §2, §3, §4

[21] = test system: NCI-H1975; details: Homo sapiens
Protocol: as §1, §2, §3, §4

[22] = test system: MDA-MB-435; details: Homo sapiens, Melanoma MDA-MB-435, Alamar Blue
Protocol: as §1, §2, §3, §4

[23] = test system: HT-29; details: Homo sapiens, Colon cancer HT-29, Alamar Blue
Protocol: as §1, §2, §3, §4

[24] = test system: Jurkat; details: Homo sapiens, Hematologic Jurkat, Alamar Blue
Protocol: as §1, §2, §3, §4

[25] = test system: HepG2; details: Homo sapiens, Liver cancer HepG2, Alamar Blue
Protocol: as §1, §2, §3, §4

[26] = test system: HeLa; details: Homo sapiens, Cervical HeLa, Alamar Blue
Protocol: as §1, §2, §3, §4

[27] = test system: OVCAR-3; details: Homo sapiens
Protocol: as §1, §2, §3, §4

[28] = test system: U-373 MG; details: Homo sapiens, U373 MG, Brain U-373 MG
Protocol: as §1, §2, §3, §4

[29] = test system: RAMOS; details: Homo sapiens, Hematologic RAMOS, Alamar Blue
Protocol: as §1, §2, §3, §4

[30] = test system: LS174T; details: Homo sapiens, Colon cancer LS174T, Alamar Blue
Protocol: as §1, §2, §3, §4

[31] = test system: CCRF-CEM; details: Homo sapiens, Hematologic CCRF-CEM, Alamar Blue
Protocol: as §1, §2, §3, §4

[32] = Lung cancer A549, Hexosaminidase assay (*)
[33] = Colon cancer COLO 205, Alamar Blue
[34] = Colon cancer SW480, Hexosaminidase assay (*)
[35] = Pancreatic cancer BxPC-3, Hexosaminidase assay (*)
[36] = Lung cancer NCI-H1975, Hexosaminidase assay (*)
[37] = Ovarian cancer OVCAR-3, Hexosaminidase assay (*)
[38] = Colon cancer SW480, Alamar Blue
[39] = Pancreatic cancer BxPC-3, Alamar Blue
[40] = Lung cancer NCI-H1975, Alamar Blue
[41] = Ovarian cancer OVCAR-3, Alamar Blue

Row | Compound | EC50 [2] | EC50 [3] | EC50 [5] | EC50 [6] | EC50 [8] | EC50 [9] | EC50 [10] | EC50 [11] | EC50 [13] | EC50 [14] | EC50 [15] | EC50 [16] | EC50 [17] | EC50 [20] | EC50 [22] | EC50 [23] | EC50 [24] | EC50 [25] | EC50 [26] | EC50 [29] | other results
1 | CC(C)C[C@H](NC(=O)[C@@H]1N[C@H](c2ccccc2)[C@@H]([N+](=O)[O-])[C@@H]1c1ccco1)B(O)O [Example 11, (R)-1-((2R,3R,4S,5R)-3-(furan-2-yl)-4-nitro-5-phenylpyrrolidine-2-carboxamido)-3-methylbutylboronic acid] | 280 nM | 800 nM | 280 nM | 120 nM | 680 nM | 60 nM | 7 nM | 290 nM | 150 nM | 330 nM | 890 nM | 1.1 µM | 660 nM | 110 nM | 170 nM | 2.5 µM | 40 nM | 220 nM | 3.1 µM | 160 nM | EC50 [1, 32]: 1.3 µM; EC50 [4, 33]: 202 nM; EC50 ([7]; Alamar Blue): 1.3 µM; EC50 [12]: 280 nM; EC50 [18, 34]: 1100 nM; EC50 [19, 35]: 700 nM; EC50 [21, 36]: 840 nM; EC50 [27, 37]: 280 nM; EC50 ([28]; Hexosaminidase assay (*)): 1.1 µM; EC50 [30]: 20 nM; EC50 [31]: 52 nM
2 | CC(C)C[C@H](NC(=O)[C@@H]1N[C@H](c2ccccc2)[C@@H]([N+](=O)[O-])[C@@H]1c1cccs1)B(O)O [Example 10, (R)-3-methyl-1-((2R,3R,4S,5R)-4-nitro-5-phenyl-3-(thiophen-2-yl)pyrrolidine-2-carboxamido)butylboronic acid] | 640 nM | 1600 nM | 490 nM | 320 nM | 1200 nM | 60 nM | 490 nM | 780 nM | 380 nM | 1300 nM | 500 nM | 2.8 µM | 2500 nM | 440 nM | 310 nM | 3.5 µM | 80 nM | 560 nM | 13 µM | 530 nM | EC50 [1, 32]: 2.6 µM; EC50 [4, 33]: 310 nM; EC50 ([7]; Alamar Blue): 0.57 µM; EC50 [12]: 700 nM; EC50 [18, 34]: 2300 nM; EC50 [19, 35]: 1500 nM; EC50 [21, 36]: 1100 nM; EC50 [27, 37]: 860 nM; EC50 ([28]; Hexosaminidase assay (*)): 2.8 µM; EC50 [30]: 140 nM; EC50 [31]: 170 nM
3 | CC(C)C[C@H](NC(=O)[C@@H]1CCCN1)B(O)O [MG-319, {(R)-3-methyl-1-[(S)-pyrrolidine-2-carboxamido]butyl}boronic acid, reference compound] | 1800 nM | 10000 nM | 30000 nM | 18000 nM | 26000 nM | 4800 nM | 4200 nM | 41000 nM | 4200 nM | 16000 nM | 25000 nM | 18 µM | 15000 nM | 6200 nM | 5300 nM | 12.3 µM | 4700 nM | 8100 nM | 52 µM | 8700 nM | EC50 ([4]; Colon cancer COLO 205, Hexosaminidase assay (*)): 1900 nM; EC50 ([7]; Alamar Blue): 25 µM; EC50 [12]: 24000 nM; EC50 [18, 38]: 8800 nM; EC50 [19, 39]: 33000 nM; EC50 [21, 40]: 47000 nM; EC50 [27, 41]: 6900 nM; EC50 ([28]; Alamar Blue): 92 µM; EC50 [30]: 5900 nM; EC50 [31]: 4500 nM

Second part, led by results:

Row | EC50 [2] | EC50 [3] | EC50 [5] | EC50 [6] | EC50 [8] | EC50 [9] | EC50 [10] | EC50 [11] | EC50 [13] | EC50 [14] | EC50 [15] | EC50 [16] | EC50 [17] | EC50 [20] | EC50 [22] | EC50 [23] | EC50 [24] | EC50 [25] | EC50 [26] | EC50 [29] | Compound | other results
4 | 440 nM | 620 nM | 1300 nM | 1000 nM | 300 nM | 310 nM | 160 nM | 570 nM | 120 nM | 1400 nM | 2000 nM | 3.2 µM | 1700 nM | 570 nM | 210 nM | 0.85 µM | 800 nM | 500 nM | 11 µM | 500 nM | CC(C)C[C@H](NC(=O)[C@@H]1N[C@H](c2ccc3ccccc3c2)[C@@H]([N+](=O)[O-])[C@@H]1c1ccccc1)B(O)O [Example 12, (R)-3-methyl-1-((2R,3R,4S,5R)-5-(naphthalen-2-yl)-4-nitro-3-phenylpyrrolidine-2-carboxamido)butylboronic acid] | EC50 ([1]; Lung cancer A549, Alamar Blue): 5.8 µM; EC50 [4, 33]: 2400 nM; EC50 ([7]; Hexosaminidase assay (*)): 7.1 µM; EC50 [18, 38]: 560 nM; EC50 [19, 39]: 970 nM; EC50 [21, 40]: 780 nM; EC50 [27, 41]: 330 nM; EC50 ([28]; Alamar Blue): 11 µM; EC50 [30]: 260 nM; EC50 [31]: 140 nM
5 | 1900 nM | 1300 nM | 700 nM | 4100 nM | 1500 nM | 150 nM | 490 nM | 1300 nM | 390 nM | 4100 nM | 12000 nM | 5.1 µM | 6700 nM | 1200 nM | 1000 nM | 3.5 µM | 2500 nM | 1400 nM | 28 µM | 2400 nM | CC(C)C[C@H](NC(=O)[C@@H]1N[C@H](c2ccccc2)[C@@H]([N+](=O)[O-])[C@@H]1c1ccccc1)B(O)O [Example 1, (R)-3-methyl-1-((2R,3R,4S,5R)-4-nitro-3,5-diphenylpyrrolidine-2-carboxamido)butylboronic acid] | EC50 ([1]; Lung cancer A549, Alamar Blue): 7 µM; EC50 [4, 33]: 11000 nM; EC50 ([7]; Alamar Blue): 10 µM; EC50 [12]: 790 nM; EC50 [18, 38]: 1100 nM; EC50 [19, 39]: 4600 nM; EC50 [21, 40]: 25000 nM; EC50 [27, 41]: 740 nM; EC50 ([28]; Alamar Blue): 44 µM; EC50 [30]: 720 nM; EC50 [31]: 670 nM
